Tested on: patients with acute schizophrenia
Assay: Relapse prophylaxis in schizophrenia patients withdrawn from fluphenazine maintenance therapy
Type: in vivo
Conditions: ten clinically stable patients taken off fluphenazine; L-dopa or L-dopa combination preparation given 2 months prior to withdrawal and during the entire withdrawal phase; about 8 of 10 relapses expected within 12 months per literature
Method: Ten patients with acute schizophrenia, who had accordingly received maintenance therapy with fluphenazine for more than one year and were clinically stable, were successively taken off this drug. According to clinical experience (see Gitlin M., Nuechterlein K., Subotnik K. L. et al., Am. J. Psychiatry (2001) 158(11), pp. 1835-42), about 8 of the 10 patients would be expected to suffer a relapse within the following 12 months. Our patients were treated with L-dopa or a combination preparation containing L-dopa for 2 months prior to withdrawal and during the entire withdrawal phase. In these patients, a relapse occurred in only 2 of 10 cases.

Structure (SMILES): N[C@@H](Cc1ccc(O)c(O)c1)C(=O)O [L-dopa, 3,4-dihydroxy-L-phenylalanine]
- relapse occurred (cases with relapse out of patients treated): 2 of 10

Source: patent publication US20070082953A1, “Use of l-dopa, derivatives thereof and medicaments comprising said compounds for the prophylaxis of psychotic diseases” (priority 2003, published 2007)
